# Data: PMC9604729, “Unusual Tetrahydropyridoindole-Containing Tetrapeptides with Human Nicotinic Acetylcholine Receptors Targeting Activity Discovered from Antarctica-Derived Psychrophilic Pseudogymnoascus sp. HDN17-933” (Marine Drugs, 2022)
# “And” between values parts separate entries of the source, which are not always exact repeats. Identical values can stand only once. Like-named read-outs stand apart in the source and are kept apart here. Square brackets hold non-standard residues; d marks the D form. Ends that are not written are not given here. Peptide text beside a SMILES is read from it. Tpi = O=C(O)[C@@H]1Cc2c([nH]c3ccccc23)CN1
# Legend:
# human (h) α1β1εδ nAChR [1] = target: T1, human (h) α1β1εδ nAChR (Homo sapiens, UniProt P02708+P11230+Q04844+Q07001); experiment: Two-electrode voltage clamp, inhibition of ACh-evoked currents at hα1β1εδ nAChR in Xenopus oocytes; type: cell-based; details: for Relative current amplitude (h) α1β1εδ: compound 100 µM, currents activated by 5 μM ACh, ratio ACh + compound to ACh alone, mean ± SD, n = 6–11
# T1 construct: host or cells: Xenopus laevis oocytes, cRNA injected
# Experimental: (§1) All procedures were approved by the University of Wollongong Animal Ethics Committees (project number: AE2003). Female Xenopus laevis were sourced from Nasco (Fort Atkinson, WI, USA), and a maximum of four frogs were kept in a 15 L aquarium at 20–26 °C with 12 h light/dark cycle. Oocytes were obtained from five-year-old frogs anesthetized with 1.7 mg/mL ethyl 3-aminobenzoate methanesulfonate (pH 7.4 with NaHCO3). Stage V-VI oocytes (Dumont’s classification; 1200–1300 μm diameter) were defolliculated with 1.5 mg/mL collagenase Type II (Worthington Biochemical Corp., Lakewood, NJ, USA) at room temperature for 1–2 h in OR-2 solution containing (in mM): 82.5 NaCl, 2 KCl, 1 MgCl2 and 5 HEPES at pH 7.4.
# (§2) The human muscle nAChR clones (α1, β1, γ, δ and ε) were purchased from Integrated DNA Technologies (Coralville, IA, USA), whereas the human α3, α9, α10, β2, and β4 clones were purchased from OriGene (Rockville, MD, USA), and all were subsequently inserted into the pT7TS vector. The human α4 and α7 clones were obtained from Prof. Jon Lindstrom (University of Pennsylvania, Philadelphia, PA, USA). Plasmid constructs of the human nAChR clones were linearized for in vitro mRNA synthesis using mMessage mMachine transcription kit (AMBION, Forster City, CA, USA).
# (§3) Oocytes were injected with 5 ng cRNA for hα1β1γδ, hα1β1εδ, hα3β2, hα3β4 and hα4β2, 10 ng cRNA for hα7 nAChR, and 35 ng cRNA for hα9α10 nAChR (concentration confirmed spectrophotometrically and by gel electrophoresis). The muscle subunit cRNA ratio was 2:1:1:1 (α1:β1: γ/ε:δ), whereas the heteromeric α and β subunit cRNA ratio was 1:1, injected using glass pipettes pulled from glass capillaries (3-000-203 GX, Drummond Scientific Co., Broomall, PA, USA). Oocytes were incubated at 18 °C in sterile ND96 solution composed of (in mM): 96 NaCl, 2 KCl, 1 CaCl2, 1 MgCl2, and 5 HEPES at pH 7.4, supplemented with 5% fetal bovine serum, 50 mg/L gentamicin (GIBCO, Grand Island, NY, USA) and […] penicillin-streptomycin (GIBCO).
# (§4) Electrophysiological recordings were carried out 2–5 days post cRNA microinjection. Two-electrode voltage clamp recordings of X. laevis oocytes expressing human nAChRs were performed at room temperature (21–24 °C) using a GeneClamp 500B amplifier and pClamp9 software interface (Molecular Devices, Sunnyvale, CA, USA) at a holding potential −80 mV. Voltage-recording and current-injecting electrodes were pulled from GC150T-7.5 borosilicate glass (Harvard Apparatus, Holliston, MA) and filled with 3 M KCl, giving resistances of 0.3–1 MΩ. Due to the Ca^2+ permeability of α9α10 nAChRs, 100 µM BAPTA-AM incubation was carried out before recording to prevent the activation of X. laevis oocyte endogenous Ca^2+-activated chloride channels. Oocytes expressing hα9α10 nAChRs were perfused with ND115 solution containing (in mM): 115 NaCl, 2.5 KCl, 1.8 CaCl2, and 10 HEPES at pH 7.4, whereas oocytes expressing all other nAChR subtypes were perfused with ND96 solution using a continuous Legato 270 push/pull syringe pump perfusion system (KD Scientific, Holliston, MA, USA) at a rate of 2 mL/min in an OPC-1 perfusion chamber of <20 µL volume (Automate Scientific, Berkeley, CA, USA).
# (§5) Initially, oocytes were briefly washed with ND115/ND96 solution, followed by 3 applications of ACh at a half-maximal excitatory ACh concentration (EC50) for the nAChR subtypes (3 µM for hα4β2, 5 µM for hα1β1γδ and hα1β1εδ, 6 µM for hα3β2 and hα9α10, 100 µM for hα7 and 300 µM for hα3β4). Washout with bath solution was performed for 3 min between ACh applications. Oocytes were incubated with compounds for 5 min with the perfusion system turned off, followed by co-application of ACh and compound with flowing bath solution. All compound solutions were prepared in ND115/ND96 + 0.1% bovine serum albumin (BSA). Incubation with 0.1% BSA was performed to ensure that the BSA and the pressure of the perfusion system had no effect on nAChRs. […]
# Target sequence in this assay (P02708 21-457 limits assumed): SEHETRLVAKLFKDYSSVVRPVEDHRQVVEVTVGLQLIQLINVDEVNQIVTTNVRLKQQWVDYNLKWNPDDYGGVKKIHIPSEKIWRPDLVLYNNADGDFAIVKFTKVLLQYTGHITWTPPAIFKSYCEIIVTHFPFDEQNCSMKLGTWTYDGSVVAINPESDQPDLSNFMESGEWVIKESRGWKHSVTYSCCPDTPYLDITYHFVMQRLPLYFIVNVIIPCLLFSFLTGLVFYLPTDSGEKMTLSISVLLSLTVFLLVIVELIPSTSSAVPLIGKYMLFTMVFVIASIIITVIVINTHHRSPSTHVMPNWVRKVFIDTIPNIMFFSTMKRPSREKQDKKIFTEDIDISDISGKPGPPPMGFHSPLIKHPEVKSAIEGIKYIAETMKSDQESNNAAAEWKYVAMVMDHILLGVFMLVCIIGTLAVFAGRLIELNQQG
# Target sequence in this assay (P11230 24-501 limits assumed): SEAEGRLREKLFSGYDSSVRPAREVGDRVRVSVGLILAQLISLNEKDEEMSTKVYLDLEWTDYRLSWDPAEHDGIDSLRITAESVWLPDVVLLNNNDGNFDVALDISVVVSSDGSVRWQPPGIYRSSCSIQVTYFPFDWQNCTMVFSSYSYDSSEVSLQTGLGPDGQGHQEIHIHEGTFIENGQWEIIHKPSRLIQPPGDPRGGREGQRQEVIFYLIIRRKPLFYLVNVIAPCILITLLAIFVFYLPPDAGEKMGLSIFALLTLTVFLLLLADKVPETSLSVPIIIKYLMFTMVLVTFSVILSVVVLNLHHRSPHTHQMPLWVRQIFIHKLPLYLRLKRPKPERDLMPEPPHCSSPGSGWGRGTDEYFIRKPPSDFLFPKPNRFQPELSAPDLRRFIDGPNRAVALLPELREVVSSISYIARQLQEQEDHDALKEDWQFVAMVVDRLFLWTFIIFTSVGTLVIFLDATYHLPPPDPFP
# Target sequence in this assay (Q04844 21-493 limits assumed): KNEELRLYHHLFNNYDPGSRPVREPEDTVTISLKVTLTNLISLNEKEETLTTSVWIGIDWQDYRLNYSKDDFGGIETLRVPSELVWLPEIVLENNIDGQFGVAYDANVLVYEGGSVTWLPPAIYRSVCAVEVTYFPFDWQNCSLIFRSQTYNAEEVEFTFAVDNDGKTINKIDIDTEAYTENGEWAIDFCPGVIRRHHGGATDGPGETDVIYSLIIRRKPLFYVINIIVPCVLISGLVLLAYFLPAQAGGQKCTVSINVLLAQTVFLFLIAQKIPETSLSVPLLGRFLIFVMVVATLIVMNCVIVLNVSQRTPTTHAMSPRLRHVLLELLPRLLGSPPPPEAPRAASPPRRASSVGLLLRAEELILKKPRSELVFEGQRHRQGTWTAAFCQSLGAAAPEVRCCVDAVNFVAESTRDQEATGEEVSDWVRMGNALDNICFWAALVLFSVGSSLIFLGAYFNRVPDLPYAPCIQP
# Target sequence in this assay (Q07001 22-517 limits assumed): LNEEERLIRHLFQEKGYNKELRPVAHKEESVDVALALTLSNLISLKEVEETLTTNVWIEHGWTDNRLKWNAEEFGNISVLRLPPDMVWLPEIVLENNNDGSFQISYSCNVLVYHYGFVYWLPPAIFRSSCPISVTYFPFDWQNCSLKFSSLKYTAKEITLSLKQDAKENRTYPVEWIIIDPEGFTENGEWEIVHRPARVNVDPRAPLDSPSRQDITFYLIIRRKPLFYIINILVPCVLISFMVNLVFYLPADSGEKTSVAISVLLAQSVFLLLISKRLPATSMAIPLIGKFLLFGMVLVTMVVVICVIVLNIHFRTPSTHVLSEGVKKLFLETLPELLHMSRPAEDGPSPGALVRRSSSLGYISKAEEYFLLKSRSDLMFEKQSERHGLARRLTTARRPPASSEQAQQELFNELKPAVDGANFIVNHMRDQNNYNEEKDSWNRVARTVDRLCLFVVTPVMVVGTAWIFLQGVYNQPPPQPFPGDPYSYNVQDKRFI
# human (h) α9α10 nAChR = target: T2, human (h) α9α10 nAChR (Homo sapiens, UniProt Q9GZZ6+Q9UGM1); experiment: Two-electrode voltage clamp, inhibition of ACh-evoked currents at hα9α10 nAChR in Xenopus oocytes; type: cell-based; details: for Relative current amplitude (h)α9α10: compound 100 µM, currents activated by 6 μM ACh, ratio ACh + compound to ACh alone, mean ± SD, n = 6–11
# T2 construct: host or cells: Xenopus laevis oocytes, cRNA injected
# Experimental: as §1, §2, §3, §4, §5
# human (h) α3β4 nAChR = target: T3, human (h) α3β4 nAChR (Homo sapiens, UniProt P30926+P32297); experiment: Two-electrode voltage clamp, inhibition of ACh-evoked currents at hα3β4 nAChR in Xenopus oocytes; type: cell-based; details: for Relative current amplitude (h)α3β4: compound 100 µM, currents activated by 300 μM ACh, ratio ACh + compound to ACh alone, mean ± SD, n = 6–11
# T3 construct: host or cells: Xenopus laevis oocytes, cRNA injected
# T3 sequence (P30926 22-498): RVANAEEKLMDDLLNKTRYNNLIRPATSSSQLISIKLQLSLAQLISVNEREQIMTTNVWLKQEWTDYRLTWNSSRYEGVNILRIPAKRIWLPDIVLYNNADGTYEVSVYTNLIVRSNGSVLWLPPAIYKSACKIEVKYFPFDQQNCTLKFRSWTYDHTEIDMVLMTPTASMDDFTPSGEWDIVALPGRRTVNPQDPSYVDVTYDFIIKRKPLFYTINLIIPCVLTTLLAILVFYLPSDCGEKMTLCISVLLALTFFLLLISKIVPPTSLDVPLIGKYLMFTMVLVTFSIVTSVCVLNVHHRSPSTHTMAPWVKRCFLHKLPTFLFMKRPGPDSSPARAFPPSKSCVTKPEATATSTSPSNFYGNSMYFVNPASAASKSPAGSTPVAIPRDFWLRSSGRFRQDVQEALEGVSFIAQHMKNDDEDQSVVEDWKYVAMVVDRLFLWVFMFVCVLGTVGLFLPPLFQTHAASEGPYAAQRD
# T3 sequence (P32297 32-505): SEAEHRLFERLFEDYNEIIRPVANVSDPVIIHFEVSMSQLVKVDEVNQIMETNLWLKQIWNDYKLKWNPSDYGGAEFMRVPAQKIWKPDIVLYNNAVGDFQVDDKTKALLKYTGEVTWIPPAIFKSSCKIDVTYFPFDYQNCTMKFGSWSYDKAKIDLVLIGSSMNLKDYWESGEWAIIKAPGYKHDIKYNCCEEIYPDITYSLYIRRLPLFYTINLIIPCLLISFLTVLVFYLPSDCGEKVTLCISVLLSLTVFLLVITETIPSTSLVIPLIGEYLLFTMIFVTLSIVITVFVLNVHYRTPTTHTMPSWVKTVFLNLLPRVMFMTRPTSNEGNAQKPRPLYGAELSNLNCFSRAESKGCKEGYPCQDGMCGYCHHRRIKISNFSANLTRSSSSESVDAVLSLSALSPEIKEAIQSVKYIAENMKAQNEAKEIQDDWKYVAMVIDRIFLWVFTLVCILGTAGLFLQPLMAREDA
# Experimental: as §1, §2, §3, §4, §5
# human (h) α4β2 nAChR = target: T4, human (h) α4β2 nAChR (Homo sapiens, UniProt P17787+P43681); experiment: Two-electrode voltage clamp, inhibition of ACh-evoked currents at hα4β2 nAChR in Xenopus oocytes; type: cell-based; details: for Relative current amplitude (h)α4β2: compound 100 µM, currents activated by 3 μM ACh, ratio ACh + compound to ACh alone, mean ± SD, n = 6–11
# T4 construct: Jon Lindstrom; β2: OriGene (clones); host or cells: Xenopus laevis oocytes, cRNA injected
# T4 sequence (P17787 26-502): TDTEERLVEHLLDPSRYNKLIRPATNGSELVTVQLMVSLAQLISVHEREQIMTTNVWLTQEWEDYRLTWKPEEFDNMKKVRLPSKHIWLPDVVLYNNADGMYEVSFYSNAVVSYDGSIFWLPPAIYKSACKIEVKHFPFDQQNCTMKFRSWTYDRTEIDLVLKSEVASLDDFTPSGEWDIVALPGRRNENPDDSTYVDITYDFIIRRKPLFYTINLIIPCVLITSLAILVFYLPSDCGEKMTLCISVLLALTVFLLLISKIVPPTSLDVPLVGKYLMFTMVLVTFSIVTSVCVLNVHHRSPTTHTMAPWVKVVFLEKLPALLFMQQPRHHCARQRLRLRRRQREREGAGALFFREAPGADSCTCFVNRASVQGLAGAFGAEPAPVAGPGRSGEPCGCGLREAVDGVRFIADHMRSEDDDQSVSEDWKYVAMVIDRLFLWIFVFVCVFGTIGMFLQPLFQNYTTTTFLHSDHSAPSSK
# T4 sequence (P43681 29-627): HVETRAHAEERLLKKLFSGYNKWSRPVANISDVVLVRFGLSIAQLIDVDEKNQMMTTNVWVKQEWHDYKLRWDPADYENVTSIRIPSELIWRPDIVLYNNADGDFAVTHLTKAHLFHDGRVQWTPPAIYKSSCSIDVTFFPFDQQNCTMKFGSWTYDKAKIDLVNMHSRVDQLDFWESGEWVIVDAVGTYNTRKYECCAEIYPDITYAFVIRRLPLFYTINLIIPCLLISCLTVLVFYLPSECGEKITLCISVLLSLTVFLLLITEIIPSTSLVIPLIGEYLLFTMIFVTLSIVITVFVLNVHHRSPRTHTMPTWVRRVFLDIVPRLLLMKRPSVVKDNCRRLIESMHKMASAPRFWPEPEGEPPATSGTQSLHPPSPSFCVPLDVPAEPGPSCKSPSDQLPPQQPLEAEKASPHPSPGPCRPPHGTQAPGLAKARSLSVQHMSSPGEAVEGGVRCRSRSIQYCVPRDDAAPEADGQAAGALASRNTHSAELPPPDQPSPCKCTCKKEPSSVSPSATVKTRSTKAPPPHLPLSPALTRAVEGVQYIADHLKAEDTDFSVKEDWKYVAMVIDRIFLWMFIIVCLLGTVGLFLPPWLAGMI
# Experimental: as §1, §2, §3, §4, §5
# human (h) α3β2 nAChR = target: T5, human (h) α3β2 nAChR (Homo sapiens, UniProt P17787+P32297); experiment: Two-electrode voltage clamp, inhibition of ACh-evoked currents at hα3β2 nAChR in Xenopus oocytes; type: cell-based; details: for Relative current amplitude (h)α3β2: compound 100 µM, currents activated by 6 μM ACh, ratio ACh + compound to ACh alone, mean ± SD, n = 6–11
# T5 construct: host or cells: Xenopus laevis oocytes, cRNA injected
# T5 sequence (P32297 32-505): as the sequence (P32297 32-505) above
# T5 sequence (P17787 26-502): as the sequence (P17787 26-502) above
# Experimental: as §1, §2, §3, §4, §5
# human (h) α1β1γδ nAChR = target: T6, human (h) α1β1γδ nAChR (Homo sapiens, UniProt P02708+P07510+P11230+Q07001); experiment: Two-electrode voltage clamp, inhibition of ACh-evoked currents at hα1β1γδ nAChR in Xenopus oocytes; type: cell-based; details: for Relative current amplitude (h)α1β1γδ: compound 100 µM, currents activated by 5 μM ACh, ratio ACh + compound to ACh alone, mean ± SD, n = 6–11
# T6 construct: host or cells: Xenopus laevis oocytes, cRNA injected
# Experimental: as §1, §2, §3, §4, §5
# human (h) α7 nAChR = target: T7, human (h) α7 nAChR (Homo sapiens, UniProt P36544); experiment: Two-electrode voltage clamp, inhibition of ACh-evoked currents at hα7 nAChR in Xenopus oocytes; type: cell-based; details: compound 100 µM; currents activated by 100 μM ACh; ratio ACh + compound to ACh alone; mean ± SD, n = 6–11
# T7 construct: Jon Lindstrom (clone); host or cells: Xenopus laevis oocytes, cRNA injected
# T7 sequence (P36544 23-502): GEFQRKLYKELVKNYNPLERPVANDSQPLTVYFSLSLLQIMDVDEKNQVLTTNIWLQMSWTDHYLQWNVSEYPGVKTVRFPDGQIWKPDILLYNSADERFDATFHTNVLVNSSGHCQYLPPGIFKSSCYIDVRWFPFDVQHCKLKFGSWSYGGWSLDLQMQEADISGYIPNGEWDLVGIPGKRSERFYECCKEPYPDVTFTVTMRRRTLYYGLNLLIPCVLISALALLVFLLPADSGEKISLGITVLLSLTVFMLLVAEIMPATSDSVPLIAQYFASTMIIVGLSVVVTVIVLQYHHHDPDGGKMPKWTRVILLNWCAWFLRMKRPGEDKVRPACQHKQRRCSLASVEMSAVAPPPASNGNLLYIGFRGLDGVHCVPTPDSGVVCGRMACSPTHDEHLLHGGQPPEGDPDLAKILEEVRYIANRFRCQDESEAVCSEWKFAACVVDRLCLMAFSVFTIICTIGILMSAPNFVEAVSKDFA
# Experimental: as §1, §2, §3, §4, §5
# BEL-7047 cell lines = tested on: BEL-7047 cell lines; parameters: method as in doi:10.1016/j.tet.2008.11.078; details: read-out: IC50, cytotoxicity against BEL-7047 cell lines; cited from earlier work
# HL60 cell lines = details: cited from earlier work
# NF-kB = tested on: NF-kB; parameters: method as in doi:10.1016/j.tet.2012.09.038; details: cited from earlier work
# Balamus amphitrite = tested on: Balamus amphitrite; parameters: method as in doi:10.1016/j.tetlet.2015.12.026; details: cited from earlier work
# human (h) α1β1εδ nAChR [2] = target: T1, human (h) α1β1εδ nAChR; details: read-out: half-maximal inhibitory concentration (IC50), ACh-evoked currents mediated by hα1β1εδ; cited from earlier work
# [3] = compound 100 µM (Figure 3, Table S1), 100 µM
# [4] = compound 100 µM (Figure 3, Table S1)
Compound,Relative current amplitude (h) α1β1εδ (human (h) α1β1εδ nAChR [1]),Relative current amplitude (h)α9α10 (human (h) α9α10 nAChR),Relative current amplitude (h)α3β4 (human (h) α3β4 nAChR),Relative current amplitude (h)α4β2 (human (h) α4β2 nAChR),Relative current amplitude (h)α3β2 (human (h) α3β2 nAChR),Relative current amplitude (h)α1β1γδ (human (h) α1β1γδ nAChR),Relative current amplitude (h)α7 (human (h) α7 nAChR),also measured
"CC(C)C(NC(=O)C(N)Cc1c[nH]c2ccccc12)C(=O)NC(C(=O)NC(Cc1ccccc1)C(=O)O)C(C)C (stereo not shown) [Compound 1, psegynamide A] (H-WVVF-OH; configuration not given here)",0.190 ± 0.056,0.103 ± 0.027,0.462 ± 0.069,0.637± 0.053,0.435 ± 0.071,0.664 ± 0.062,0.293 ± 0.074,–
"COC(=O)[C@@H](Cc1ccccc1)NC(=O)[C@@H](NC(=O)[C@H](NC(=O)[C@@H](N)Cc1c[nH]c2ccccc12)C(C)C)C(C)C [Compound 2, psegynamide B] (H-W[dV]V[dF]-OMe)",0.024 ± 0.011,0.075 ± 0.036,0.071 ± 0.028,0.301 ± 0.039,0.236 ± 0.069,0.017 ± 0.014,0.566 ± 0.072,"inhibition of ACh-evoked currents, α1β1εδ (human (h) α1β1εδ nAChR [1]; [3]): > 70%; inhibition at 100 µM (human (h) α9α10 nAChR; [4]): > 70%; inhibition at 100 µM (human (h) α3β4 nAChR; [4]): > 70%; inhibition at 100 µM (human (h) α4β2 nAChR; [4]): > 70%; inhibition at 100 µM (human (h) α3β2 nAChR; [4]): > 70%; inhibition of ACh-evoked currents, α1β1γδ (human (h) α1β1γδ nAChR; [3]): > 70% and > 98%"
"CC(C)[C@H](NC(=O)[C@H](NC(=O)[C@@H](N)Cc1c[nH]c2ccccc12)C(C)C)C(=O)N[C@H](Cc1ccc(O)cc1)C(=O)O [Compound 3, psegynamide C] (H-W[dV]V[dY]-OH)",0.648 ± 0.067,0.509 ± 0.041,0.675 ± 0.040,0.793 ± 0.078,0.451 ± 0.056,0.861 ± 0.084,0.368 ± 0.088,–
"CC(C)[C@H](NC(=O)[C@H](NC(=O)[C@@H]1Cc2c([nH]c3ccccc23)CN1)C(C)C)C(=O)N[C@H](Cc1ccccc1)C(=O)O [Compound 4, psegynamide D]",0.757 ± 0.065,0.824 ± 0.064,0.670 ± 0.049,0.972 ± 0.057,0.924 ± 0.069,0.985 ± 0.019,0.228 ± 0.049,–
"COC(=O)[C@@H](Cc1ccccc1)NC(=O)[C@@H](NC(=O)[C@H](NC(=O)[C@@H]1Cc2c([nH]c3ccccc23)CN1)C(C)C)C(C)C [Compound 5, psegynamide E]",0.392 ± 0.069,0.374 ± 0.073,0.656 ± 0.051,0.837 ± 0.061,0.656 ± 0.074,0.799 ± 0.063,0.399 ± 0.061,–
"COC(=O)[C@@H](Cc1ccc(O)cc1)NC(=O)[C@@H](NC(=O)[C@H](NC(=O)[C@@H]1Cc2c([nH]c3ccccc23)CN1)C(C)C)C(C)C [Compound 6, psegynamide F] (H-[Tpi][dV]V[dY]-OMe)",0.618 ± 0.047,0.760 ± 0.062,0.777 ± 0.053,0.938 ± 0.076,0.579 ± 0.077,0.802 ± 0.096,0.838 ± 0.066,–
C[C@@H]1C=CC(=O)[C@@]2(C)CC[C@@H]3[C@@H]4[C@@](C)(CC[C@@]4(C)CO)C[C@@]132 [conidiogenone C],–,–,–,–,–,–,–,"IC50 (BEL-7047 cell lines): 0.9 µM; IC50 (HL60 cell lines; read-out: IC50, cytotoxicity against HL60 cell lines): 0.038 µM"
CC(=O)c1cc(C)c(O)c(C[C@]23Cc4c(O)c(C(C)=O)cc(C)c4O[C@@]2(O)[C@@H](C)OC3=O)c1O [penilactone A],–,–,–,–,–,–,–,NF-kB inhibitory rate (NF-kB): 40%
CC(=O)c1cc(C)c(O)c(C[C@@]23Cc4c(O)c(C(C)=O)cc(C)c4O[C@]2(O)[C@H](CC(=O)O)OC3=O)c1O [penilactone B],–,–,–,–,–,–,–,NF-kB inhibitory rate (NF-kB): 40%
trichobotryside A,–,–,–,–,–,–,–,"EC50, inhibiting the larvae settlement of Balamus amphitrite (Balamus amphitrite): 2.5 µg/mL"
trisorbicillone A,–,–,–,–,–,–,–,"IC50 (HL60 cell lines; read-out: IC50, cytotoxic against HL60 cell lines): 3.14 µM"
"α-conotoxin GI (ECCNPACGRHYSC; ends and bridges not checked; cysteine pairing not given here; UniProt X5I9Y2 50-62, looked up)",–,–,–,–,–,–,–,IC50 (human (h) α1β1εδ nAChR [2]): 0.02 µM
